Series [1] deals with human serum albumin (HSA) (Homo sapiens, UniProt P02768). Description: Fluorescence quenching binding study with HSA. The conditions noted are these: Stern–Volmer plot, ligand 0–20 μM, HSA 5–10 μM. The procedure: The binding affinity of selected hydrazone derivatives with human serum albumin (HSA) and MARK4 was carried out using fluorescence binding studies as described.[39] The values of binding constant (Ka) and a number of binding sites present in protein (n) were obtained by using the modified Stern–Volmer equation from the intercept and slope, respectively.
Chain of human serum albumin (HSA) (P02768 25-609): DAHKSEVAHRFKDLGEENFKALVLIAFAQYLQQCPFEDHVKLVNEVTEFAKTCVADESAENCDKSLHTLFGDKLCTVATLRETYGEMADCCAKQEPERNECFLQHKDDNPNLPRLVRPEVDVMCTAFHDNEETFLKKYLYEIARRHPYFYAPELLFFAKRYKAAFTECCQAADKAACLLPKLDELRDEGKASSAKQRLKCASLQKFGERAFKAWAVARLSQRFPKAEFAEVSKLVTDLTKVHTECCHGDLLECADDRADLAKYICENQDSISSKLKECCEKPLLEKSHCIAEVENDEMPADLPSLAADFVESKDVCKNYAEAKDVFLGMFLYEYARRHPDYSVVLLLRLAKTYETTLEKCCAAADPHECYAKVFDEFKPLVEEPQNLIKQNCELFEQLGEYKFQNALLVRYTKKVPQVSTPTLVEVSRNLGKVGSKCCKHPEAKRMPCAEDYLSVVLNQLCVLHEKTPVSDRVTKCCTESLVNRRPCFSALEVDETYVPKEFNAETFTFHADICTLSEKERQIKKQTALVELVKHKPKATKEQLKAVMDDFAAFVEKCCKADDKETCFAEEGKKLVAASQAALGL
To measure the actual binding affinity of selected ligands with MARK4 and HSA, fluorescence quenching studies were performed.[43,44] Both MARK4 and HSA contain tryptophan residues, therefore it has been used as an intrinsic fluorophore to estimate the interaction of ligand. Protein was excited at 280 nm and the emission spectrum was recorded in 300–400 nm range. With increasing ligand concentrations (0–20 μM), the fluorescence intensity of MARK4 and HSA was decreases in a concentration-dependent manner (Fig. 3 and 4), indicating a considerable binding. Values of Ka and n were calculated from fluorescence emission spectra using the Stern–Volmer plot. […]
Fig. 4 Binding of compound H4 and H19 with HSA. (A) Fluorescence emission spectra of HSA (5–10 μM) with increasing concentrations of compound H4 and H19. (B) Stern–Volmer plot obtained from the fluorescence quenching data of HSA by compound H4 and H19, respectively. Protein sample was excited at 280 nm and emission for each titration was recorded in the range of 300–400 nm. […]

The subject of series [2] is MCF-7 cells. Description: MTT cell proliferation assay, MCF-7. It is filed as cell-based. The conditions noted are these: Homo sapiens, read-out: IC50, cell proliferation, MCF-7 cells. On the procedure: (§1) Human cell lines (HEK-293, A549 and MCF-7) were seeded and maintained in a medium supplemented with DMEM along with 10% heat-inactivated fetal bovine serum (Gibco) and 1% penicillin, streptomycin solution (Gibco), cultured in a 5% CO2 humidified incubator at 37 °C. Cell cultures were maintained and trypsinized regularly, not for more than 30 passages. MTT assay was carried out to see the effect of selected hydrazone compound treatment on the viability of non-cancerous (HEK-293) and cancerous cell lines (A549 and MCF-7) as per described method.[22,24] In brief, 6000–7000 cells per well were seeded in a 96-well plate and after 24 h growth, the cells were treated with increasing concentrations (0–200 μM) of each hydrazone (final volume of 200 μL) for 48 h at 37 °C in a humidified chamber. After 48 h, MTT was added (20 μL solution from 5 mg mL^−1 stock solution prepared in phosphate buffer saline, pH 7.4) to each well and plates were further incubated for 4–5 h at 37 °C in a CO2 incubator. The supernatant was aspirated and the formazan crystals were dissolved in 150 μL of DMSO. The absorbance (A) of final products was measured using multiplate ELISA reader (BioRad) at 570 nm. The percentage of cell viability was calculated and IC50 (50% inhibitory concentration) values of each hydrazone derivative were estimated (paclitaxel was taken as a positive control for cell proliferation studies).
On the technique in general: Formazan colour is commonly taken as a measure of viable cells.

In a further series the test system is HEK293 cells. Description: MTT cell viability assay, non-cancerous HEK293. The conditions noted are these: at the IC50 or active concentration, compared with cancerous cells. Format: cell-based, human. On the procedure: as §1
For series [3], the system named is MCF-7 cells. In words: Annexin-V/PI apoptosis assay by flow cytometry, MCF-7. It is filed as cell-based, human. The conditions noted are these: IC50 concentration, 48 h. On the procedure: Annexin-V staining was used to assess the apoptotic potential of the selected hydrazones as described.[22,41] Briefly, cells were treated with IC50 concentration of selected hydrazones for 24 h and control cells were treated with DMSO/culture medium only. After 24 h incubation, approximately 2.0–2.5 × 10^6 cells were collected by trypsinization and washed twice with PBS (5–10 mL). Finally, FITC labelled Annexin-V and PE labelled PI was used for staining the cells using the FITC-Annexin-V kit by following manufacture instructions (BD-Biosciences, USA). Nearly, 10 000 events were recorded using BD LSR II Flow Cytometry Analyzer and analyzed by FlowJo software.
Cancer cells support their growth and maintenance by evading the apoptotic pathways.[48] MARK4 regulates the cancer cell growth and proliferation via modulating the apoptotic pathways.[12,15,46] The treatment of MCF-7 and A549 cells with H4 and H19 inhibit the activity of MARK4, decreases cell proliferation and migration raises the evaluation of these MARK4 inhibitors for the apoptosis induction. Thus, to investigate whether the selected inhibitor induces cell death via apoptosis or not, we have performed Annexin-V/PI staining using flow cytometry. Cells were treated with IC50 concentration of each molecule for 48 h and processed for apoptosis analysis. […]

Series [4] relates to A549 cells. In words: Trans-well cell migration assay, A549. Format: cell-based, human. The conditions noted are these: IC50 concentration, 24 h, Boyden chamber, vs control. The procedure: Trans-well migration assay was performed using a modified Boyden chamber containing cell culture inserts (8 μm pore size, polyethylene terephthalate track-etched membrane, BD Falcon #353093). Briefly, cells were serum-starved for 3–4 h, trypsinized and suspended in a serum-free medium. In the upper chamber of cell culture insert, an equal number of cells with the IC50 dose of selected compounds or DMSO (control) were plated and in the lower chamber of well plate, 10% FBS-DMEM (for chemotaxis movement) was added. The cells were allowed to migrate for 24 h in a humidified 5% CO2 incubator at 37 °C and the migrated cells (that invaded through membrane pores) onto the lower side of Trans-well cell culture insert were fixed with methanol and staining was performed using 0.4% crystal violet in 25% methanol. The remaining cells present on the upper side of the chamber were wiped off with the help of cell scrapper/tissue wipes. Finally, the migrated cells present on the lower surface of the cell culture insert were imaged using a light microscope and counted in 3–5 random fields.

The subject of series [5] is A549 cells. Description: Colony formation assay, A549. Format: cell-based, human. The conditions noted are these: IC50 concentration, 10–12 days, vs control. On the procedure: The colony-forming assay was performed to evaluate the effect of selected compounds on cell colonization potential of cancer cells. Briefly, cells were plated at a density of 1000–2000 (A549/MCf-7) cells per well in a six-well cell culture plate. Cells were grown for at least 24 h in cell growth medium and then incubated with IC50 concentration of selected compounds for 10–12 days at 37 °C (in a humidified 5% CO2 incubator). Control cells were treated with an equal percentage of DMSO. After 10–12 days, the cell colonies were fixed with 100% methanol and staining was performed using 0.4% crystal violet in 25% methanol. The colonies obtained was counted, plotted and compared with the controls.

The structures appear in SMILES notation. Read-outs that look alike come from different tables or passages of the source.

On to `Cc1cc(C)c(C=NNC(=O)c2ccc(OCCN(C)C)cc2)c(C)c1` [H19], for which the Kd in series [1] (read-out: binding constant Ka for HSA (converted)) was 7.69 µM. Moreover, the IC50 in the series with MCF-7 cells [2] (MCF7, 48 h) was 34.4 µM. For the same compound, the “cytotoxicity to non-cancerous cells” value in the series with HEK293 cells is given as “less toxic”. Further, the “apoptosis induced, share of MCF-7 cells” value in the series on MCF-7 cells [3] is reported as 26.71%. In the series with A549 cells [4], the “cell migration, A549” value is “lesser number of cells were migrated”. Moreover, in the series with A549 cells [5], the “number of colonies, A549” value was “significantly decreased”.
With `CN(C)CCOc1ccc(C(=O)NN=Cc2ccc(Cl)cc2)cc1` [H4], the “binding constant Ka for HSA” value in series [1] is 443000 M⁻¹. Further, the IC50 in the series with MCF-7 cells [2] (MCF7, MTT, 48 h, 0–200 μM) was found to be 27.4 µM. Besides, the “cytotoxicity to non-cancerous cells” value in the series with HEK293 cells is on record as “less toxic”. In the series with MCF-7 cells [3], the “apoptosis induced, share of MCF-7 cells” value is 30.29%. Moreover, the “cell migration, A549” value with A549 cells [4] is “lesser number of cells were migrated”. In addition, the “number of colonies, A549” value with A549 cells [5] is recorded as “significantly decreased”.

Source of the values: article PMC9054212, “Discovery of 4-(2-(dimethylamino)ethoxy)benzohydrazide derivatives as prospective microtubule affinity regulating kinase 4 inhibitors” (RSC Advances, 2020).
